The results in this text go back to PubChem BioAssay (NCI).

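Test compounds were applied to cells in 96-well plates for 48 hours at 5 doses. GI50 marks 50% less growth. Definition used: TGI = concentration required for complete inhibition of growth.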 A value given as a limit tells only on which side of the number the result lay.

One test concerns HL-60(TB) leukemia. In words: growth of human tumour cells (NCI), 48 h.
Regarding `COc1ccc(/C(=C2/O[C@@H]([C@H]3COC(C)(C)O3)[C@H]3OC(C)(C)O[C@@H]23)c2cc(OC)c(OC)c(OC)c2)cc1O`, the GI50 is 6.48 µM and the TGI was determined as 56.8 µM.
Consider `Cn1c(=O)c2c(nc(-n3nc(-c4ccc(Cl)cc4)cc3N)n2C)n(C)c1=O`, for which the TGI is more than 100 µM.
As for `N=c1c2c(C(N)=O)cn(C3OC(CO)C(O)C3O)c2ncn1O` (stereo not given), the GI50 was 0.191 µM and the TGI was 0.659 µM.
Take `CCS(=O)(=O)Nc1ccc(Nc2c3ccccc3nc3ccccc23)c(OC)c1`: the TGI is 0.13 µM.
Compound `Cc1nc(N)nc(N)c1-c1ccc(Cl)c(Cl)c1` yielded a TGI of more than 88.1 µM.
Same read-out and setting: the same measure for `Cc1cccc2nc3c(C(=O)NCCN(C)C)cccc3cc12`: 3.37 µM; for `C[C@]12CC[C@@H]3c4ccc(OP(=O)(O)O)cc4CC[C@H]3[C@@H]1CCC2=O`: more than 100 µM.
Still for that read-out and setting: the same measure for `CCSCCC(N)C(=O)O` (stereo not given): more than 100 µM; for `COc1ccc2nc(N/N=C/C(C)=N/Nc3cc(C)c4cc(OC)ccc4n3)cc(C)c2c1`: 40.6 µM.
With `CN(C)CC(=O)Nc1ccc(Cn2nnc3c2C(=O)c2nnn(Cc4ccc(NC(=O)CN(C)C)cc4)c2C3=O)cc1`, the GI50 was 0.074 µM and the TGI came to 0.5 µM.

A further test deals with HOP-92 NSCLC. Put plainly: growth of human tumour cells (NCI), 48 h.
`CCN(CC)CC(C)Nc1ccc([N+](=O)[O-])c2sc3ccccc3c(=O)c12` (stereo not given): the GI50 was 1.39 µM.
In the case of `N=C(N)c1ccc(-c2ccc(-c3cc(Cl)cc(Cl)c3)o2)nc1`, the GI50 was 1.56 µM and the TGI stood at 3.14 µM.
For `O=C(CCCCCCC(=O)Nc1ccc(N(CCCl)CCCl)cc1)NO`, in that order: 1.19 µM and 5.47 µM.
Compound `CN1CC[C@@]2(c3cccc(O)c3)CC(=O)/C(=C/c3ccccc3)[C@H]1C2` gave a TGI of 31 µM.
`O=C(N/N=C(/c1ccccc1)C(F)(F)F)c1ccncc1`: the TGI was more than 100 µM.
Still for that read-out and setting: the figure for `ONc1ncnc2nc[nH]c12` is more than 100 µM; for `CCCc1[nH]c(SCCCCCCCCSc2nc(-c3ccc(F)cc3)c(CCC)[nH]2)nc1-c1ccc(F)cc1` it is 29.6 µM.
On the same count and under the same terms, the same measure for `O=S(=O)(O)c1ccc2cccc(N=Nc3c(O)ccc4ccccc34)c2c1`: more than 100 µM.
For the compound `COc1ccc2nc(-c3ccc(-c4noc(-c5cc(OC)c(OC)c(OC)c5)n4)cc3)[nH]c2c1`, the GI50 was 14.3 µM and the TGI was 33.5 µM.
For `COc1ccc(/C(=C2/O[C@@H]([C@H]3COC(C)(C)O3)[C@H]3OC(C)(C)O[C@@H]23)c2cc(OC)c(OC)c(OC)c2)cc1O`, in that order: 4 µM and 38.3 µM.
For `Cn1c(=O)c2c(nc(-n3nc(-c4ccc(Cl)cc4)cc3N)n2C)n(C)c1=O`, the TGI is more than 100 µM.
The same measure, in the same setting: the same measure for `N=c1c2c(C(N)=O)cn(C3OC(CO)C(O)C3O)c2ncn1O` (stereo not given): more than 100 µM.
On the same count and under the same terms, the same measure for `CCS(=O)(=O)Nc1ccc(Nc2c3ccccc3nc3ccccc23)c(OC)c1`: 5.35 µM.
`Cc1nc(N)nc(N)c1-c1ccc(Cl)c(Cl)c1` registered a TGI of 79.7 µM.
The same measure, in the same setting: the same measure for `Cc1cccc2nc3c(C(=O)NCCN(C)C)cccc3cc12`: 3.99 µM.
The same measure, in the same setting: the same measure for `C[C@]12CC[C@@H]3c4ccc(OP(=O)(O)O)cc4CC[C@H]3[C@@H]1CCC2=O`: more than 100 µM.
The compound `CCSCCC(N)C(=O)O` (stereo not given) registered a TGI of more than 100 µM.
As for `COc1ccc2nc(N/N=C/C(C)=N/Nc3cc(C)c4cc(OC)ccc4n3)cc(C)c2c1`, the TGI is more than 89.9 µM.

A further test relates to HS 578T breast. In words: growth of human tumour cells (NCI), 48 h.
For the compound `CCN(CC)CC(C)Nc1ccc([N+](=O)[O-])c2sc3ccccc3c(=O)c12` (stereo not given), the GI50 was 2.72 µM and the TGI was 13.4 µM.
For `N=C(N)c1ccc(-c2ccc(-c3cc(Cl)cc(Cl)c3)o2)nc1`, in that order: 1.87 µM and 3.93 µM.
`CCOC(=O)CSc1nc(N)c2c(-c3ccc(OC)c(OC)c3)c3c(nc2n1)CCCC3` showed a TGI of 35.6 µM.
Still for that read-out and setting: the figure for `CNC(=O)OC(C)CN1c2ccccc2Sc2ccc(Cl)cc21` (stereo not given) is more than 10 µM.
Turning to `O=C(CCCCCCC(=O)Nc1ccc(N(CCCl)CCCl)cc1)NO`, the GI50 is 5.66 µM and the TGI was more than 100 µM.
For `CN1CC[C@@]2(c3cccc(O)c3)CC(=O)/C(=C/c3ccccc3)[C@H]1C2`, the TGI is 9.81 µM.
The same measure, in the same setting: the figure for `O=C(N/N=C(/c1ccccc1)C(F)(F)F)c1ccncc1` is more than 100 µM; for `O=S(=O)(O)c1ccc2cccc(N=Nc3c(O)ccc4ccccc34)c2c1` it is more than 100 µM.
`COc1ccc2nc(-c3ccc(-c4noc(-c5cc(OC)c(OC)c(OC)c5)n4)cc3)[nH]c2c1`: the GI50 is 9.49 µM and the TGI was determined as 55.7 µM.
For `COc1ccc(/C(=C2/O[C@@H]([C@H]3COC(C)(C)O3)[C@H]3OC(C)(C)O[C@@H]23)c2cc(OC)c(OC)c(OC)c2)cc1O`, in that order: 6.97 µM and 67.9 µM.
`Cn1c(=O)c2c(nc(-n3nc(-c4ccc(Cl)cc4)cc3N)n2C)n(C)c1=O`: the TGI was more than 100 µM.
The same measure, in the same setting: the same measure for `N=c1c2c(C(N)=O)cn(C3OC(CO)C(O)C3O)c2ncn1O` (stereo not given): 7.91 µM; for `Cc1nc(N)nc(N)c1-c1ccc(Cl)c(Cl)c1`: 58 µM.
`C[C@]12CC[C@@H]3c4ccc(OP(=O)(O)O)cc4CC[C@H]3[C@@H]1CCC2=O` showed a TGI of more than 100 µM.
Same read-out and setting: the figure for `CCSCCC(N)C(=O)O` (stereo not given) is more than 100 µM; for `COc1ccc2nc(N/N=C/C(C)=N/Nc3cc(C)c4cc(OC)ccc4n3)cc(C)c2c1` it is 68.8 µM.
For the compound `CN(C)CC(=O)Nc1ccc(Cn2nnc3c2C(=O)c2nnn(Cc4ccc(NC(=O)CN(C)C)cc4)c2C3=O)cc1`, the GI50 is 0.337 µM and the TGI is 2.06 µM.

The next test concerns K-562 leukemia. In words: growth of human tumour cells (NCI), 48 h.
On to `CCN(CC)CC(C)Nc1ccc([N+](=O)[O-])c2sc3ccccc3c(=O)c12` (stereo not given), for which the GI50 is 1.46 µM and the TGI came out at 3.74 µM.
